Measured values reported in patent publication US20080234341A1, “Carisoprodol and Phenytoin Methods” (MUTUAL PHARMACEUTICAL COMPANY, INC., priority 2006, published 2008).

Tests used:
[1] = Drug interaction study: carisoprodol added to a steady-state regimen of phenytoin; conditions: human, in vivo; for half-life / Tmax: least sq. mean
Method: A single-arm, two-way drug interaction study was conducted in which carisoprodol (350 mg SOMA®) was added to a steady state regimen of phenyloin (PROMPT® Phenyloin Sodium 100 mg Capsules). The effects of coadministration of carisoprodol at steady state conditions on the Cmax and AUC of phenyloin are summarized in Table 5. Twenty-four healthy adults participated in this comparison study and twenty-one of the subjects completed the study.
On study Days 1 through 14, a single 300 mg (1×300 mg capsule) dose of phenyloin sodium was administered to all study subjects following an overnight fast of at least 10 hours.
On study Days 15 through 28, a single 300 mg (1×300 mg capsule) dose of phenyloin sodium and a single 350 mg (1×350 mg tablet) dose of carisoprodol were co-administered to all study subjects following an overnight fast of at least 10 hours. A single dose of carisoprodol was re-administered to all study subjects 3 more times a day (every 6 hours) for Days 15 through 28.
Phenyloin: On study Days 14 and 28, 18 blood samples were collected (6 mL each) from each subject by direct venipuncture using pre-labeled Vacutainers® containing K2 EDTA as an anticoagulant. Blood samples were collected within one hour prior to dosing and after dose administration at study hours 0.5, 1, 1.5, 2, 2.5, 3, 3.5, 4, 4.5, 5, 6, 7, 8, 10, 12, 18, and 24.

[2] = tested on: plasma proteins in the bloodstream such as albumin; conditions: cited from earlier work
[3] = Single-dose two-way crossover study of phenytoin pharmacokinetics, alone or co-administered with carisoprodol; conditions: human, in vivo; for half-life / Tmax: least sq. mean
Method: The study was designed as a randomized, single-dose two-way crossover to compare the pharmacokinetic parameters of carisoprodol (350 mg SOMA® (carisoprodol) Tablets by MedPointe Pharmaceuticals, MedPointe Healthcare Inc.) and phenyloin (PROMPT® Phenyloin Sodium 100 mg Capsules by IVAX Pharmaceuticals, Inc.). Twelve healthy adults participated in this comparison study and all of the subjects completed the study.
Subjects received two separate drug administration treatments in assigned periods, one treatment per period, according to the randomization schedule. Treatment (A) was 3 PROMPT® Phenyloin Sodium 100 mg capsules with 240 mL of room temperature water after an overnight fast. Treatment (B) was 3 PROMPT® Phenyloin Sodium 100 mg capsules and 2 tablets of SOMA® (carisoprodol 350 mg tablets) after an overnight fast.
Dosing days were separated by a washout period of at least fourteen days. Blood samples were drawn prior to dosing (pre-dose) and at 0.5, 1, 1.5, 2, 2.5, 3, 3.5, 4, 4.5, 5, 6, 7, 8, 10, 12, 18, 24, and 48 hours post-dose. The samples were then analyzed for total phenyloin. At study hours 2, 4, 6, 12 and 24 an additional blood sample was collected for the determination of “free” phenyloin.
The area under the plasma concentration versus time curve [AUCt] may be calculated using the linear trapezoidal rule from the zero time point to the last measured concentration.
The area under the plasma concentration versus time curve from zero to infinity [AUC0-INF] may be calculated by adding Ct/Kelm to AUC where Ct is the last measured concentration and Kelm is the elimination rate constant.
The maximum observed plasma concentration [Cmax] may be obtained by inspection.
The time to maximum plasma concentration [Tmax] may be obtained by inspection. If the same maximum plasma concentration occurs at more than one time point, the first may be chosen as Tmax.
The terminal elimination rate constant [Kelm] may be obtained from the slope of the line, fitted by linear least squares regression, through the terminal points of the ln(base e) of the concentration versus time plot for these points.
The half-life [T1/2] may be calculated by the equation T1/2=0.693/Kelm.

[4] = cited from earlier work
[5] = cited from earlier work; remark: listed apart in the source

**Q.** What does the source list for O=C1NC(=O)C(c2ccccc2)(c2ccccc2)N1 [Phenytoin, 5,5-diphenylhydantoin]?
**A.** AUC0-INF, free steady-state phenytoin, geometric mean [1]: 32701.49 ng·h/mL; AUC0-t, free steady-state phenytoin, geometric mean [1]: 14733.48 ng·h/mL; Cmax, total steady-state phenytoin, geometric mean [1]: 13604.17 ng/mL; kelm, free steady-state phenytoin, least sq. mean [1]: 0.0312; kelm, total steady-state phenytoin, least sq. mean [1]: 0.0233; Cmax, free steady-state phenytoin, geometric mean ([1]; 350 mg): 929.76 ng/mL; half-life ([1]; T1/2, free steady-state phenytoin): 35.4 h; half-life ([1]; T1/2, total steady-state phenytoin): 39.4 h; Tmax ([1]; free steady-state phenytoin): 5.04 h; Tmax ([1]; total steady-state phenytoin): 3.55 h; bound to plasma proteins [2]: about 90%; AUC0-INF, free phenytoin, geometric mean [3]: 12927.88 ng·h/mL; AUC0-t, free phenytoin, geometric mean [3]: 5150.25 ng·h/mL; AUC(0-inf) [3]: 134000 ng·h/mL; AUC(0-t) [3]: 97300 ng·h/mL; Cmax, total phenytoin, geometric mean [3]: 3222.2 ng/mL; Kelm, total phenytoin, least sq. mean [3]: 0.03395; kelm, free phenytoin, least sq. mean [3]: 0.0279; half-life ([3]; T1/2, free phenytoin): 35.8 h; half-life ([3]; T1/2, total phenytoin): 23.9 h; Tmax ([3]; free phenytoin): 9.17 h; Tmax ([3]; total phenytoin): 7.44 h; typical clinically effective serum level of unbound or free phenytoin (therapeutic range) ([4]; free phenytoin): 1 to 2 µg/mL; typical clinically effective serum level of total phenytoin (therapeutic range) ([4]; total phenytoin): 10 to 20 µg/mL

**Q.** With CCCC(C)(COC(N)=O)COC(=O)NC(C)C (centres unmarked) [Carisoprodol, N-isopropyl-2-methyl-2-propyl-1,3-propanediol dicarbamate] as the compound, how does the “solubility in alcohol, chloroform, and acetone (descriptive)” value ([5]; alcohol, chloroform, acetone) read?
**A.** Its value is “freely soluble”.

**Q.** And the “solubility in water (descriptive)” value ([5]; water)?
**A.** The value was “very sparingly soluble”.
